ChEMBL document CHEMBL3997817, “Filamenting temperature-sensitive mutant Z inhibitors from Glycyrrhiza glabra and their inhibitory mode of action” (Bioorg Med Chem Lett, 2017)
Values after ≈ are worked out from the molar mass of the structure shown.

Assays:
[1] = tested on: Escherichia coli; experiment: Inhibition of Escherichia coli N-terminal hexahistidine-tagged FtsZ GTPase activity expressed in Escherichia coli BL21 (DE3) assessed as residual activity at 200 uM after 1 hr relative to control
[2] = tested on: Bacillus subtilis; experiment: Inhibition of Bacillus subtilis N-terminal hexahistidine-tagged FtsZ GTPase activity expressed in Escherichia coli BL21 (DE3) at 100 uM after 1 hr relative to control
[3] = tested on: Bacillus subtilis; experiment: Inhibition of Bacillus subtilis N-terminal hexahistidine-tagged FtsZ GTPase activity expressed in Escherichia coli BL21 (DE3) assessed as residual activity at 100 uM after 1 hr relative to control
[4] = tested on: Bacillus subtilis; experiment: Inhibition of Bacillus subtilis N-terminal hexahistidine-tagged FtsZ GTPase activity expressed in Escherichia coli BL21 (DE3) assessed as residual activity at 20 uM after 1 hr relative to control
[5] = tested on: Bacillus subtilis; experiment: Inhibition of Bacillus subtilis N-terminal hexahistidine-tagged FtsZ GTPase activity expressed in Escherichia coli BL21 (DE3) assessed as residual activity at 200 uM after 1 hr relative to control
[6] = tested on: Escherichia coli; experiment: Inhibition of Escherichia coli N-terminal hexahistidine-tagged FtsZ GTPase activity expressed in Escherichia coli BL21 (DE3) assessed as residual activity at 20 uM after 1 hr relative to control
[7] = tested on: Escherichia coli; experiment: Inhibition of Escherichia coli N-terminal hexahistidine-tagged FtsZ GTPase activity expressed in Escherichia coli BL21 (DE3) assessed as residual activity at 100 uM after 1 hr relative to control
[8] = tested on: Bacillus subtilis; experiment: Inhibition of Bacillus subtilis N-terminal hexahistidine-tagged FtsZ V307R mutant GTPase activity expressed in Escherichia coli BL21 (DE3) after 1 hr relative to wild type protein; conditions: concentration not given here
[9] = tested on: Bacillus subtilis; experiment: Antibacterial activity against Bacillus subtilis NBRC 3134 after overnight incubation by MTT assay; assay type: functional
[10] = Uncompetitive inhibition of Bacillus subtilis N-terminal hexahistidine-tagged FtsZ GTPase activity expressed in Escherichia coli BL21 (DE3) after 1 hr by Lineweaver-Burk plot analysis

| SMILES | Activity [1] [%] | fold change (FC) [2] | Activity [3] [%] | Activity [4] [%] | Activity [5] [%] | Activity [6] [%] | Activity [7] [%] | inhibition [8] [%] | MIC [9] [µM] | Ki [10] [µM] |
| --- | --- | --- | --- | --- | --- | --- | --- | --- | --- | --- |
| COc1c(CC=C(C)C)c(O)cc2oc(=O)c(-c3ccc(O)cc3O)cc12 | 67.3 | 0.8 to 7.7 | 52.3 | 87.8 | 30.4 | 95.9 | 85.6 | – | – | – |
| COc1cc2oc(=O)c(-c3ccc(O)cc3O)cc2c(OC)c1CC=C(C)C [GLYCYRIN] | 88.6 | 0.8 to 7.7 | 17.5 | 74.4 | 17 | 103 | 87.8 | 60 | 40 (≈ 15.3 µg/mL) | 42.6 |
| NC[C@H]1O[C@H](O[C@H]2[C@H](O)[C@@H](O[C@H]3O[C@H](CO)[C@@H](O)[C@H](N)[C@H]3O)[C@H](N)C[C@@H]2N)[C@H](O)[C@@H](O)[C@@H]1O [KANAMYCIN] | – | – | – | – | – | – | – | – | < 20 | – |
| COc1c(CC=C(C)C)c(O)cc(O)c1-c1coc2cc(O)ccc2c1=O | 106 | 0.8 to 7.7 | 96.8 | 97.4 | 90.2 | 101 | 105 | – | – | – |
| COc1c(CC=C(C)C)c(O)cc2oc(-c3ccc(O)cc3O)cc12 | – | 0.8 to 7.7 | 55.5 | 98.1 | 35.3 | 99.4 | 73.5 | – | – | – |
| CCN(CC)CCNc1nc(/C=C/c2ccc(Cl)cc2)nc2cc3ccccc3cc12 | 7.7 | – | 12.6 | 75.3 | 8 | 57.7 | 12 | – | – | – |
| CC(C)=CCc1cc(-c2oc3cc(O)cc(O)c3c(=O)c2O)ccc1O [ISOLICOFLAVONOL] | – | 0.8 to 7.7 | 10.1 | 48.5 | 7.7 | 95.2 | 61.2 | 60 | 40 (≈ 14.2 µg/mL) | 37.7 |
| COc1cc2oc(-c3ccc(O)cc3O)cc2c(OC)c1CC=C(C)C | – | 0.8 to 7.7 | 10.1 | 37.4 | 10.1 | 88.4 | 63.2 | 60 | 5 (≈ 1.77 µg/mL) | 30.9 |
| CC(C)=CCc1cc(-c2coc3cc(O)cc(O)c3c2=O)cc(O)c1O | 93.1 | 0.8 to 7.7 | 85.1 | 89.1 | 63.4 | 97.7 | 98.3 | – | – | – |
